From patent US20110059953A1, “COMPOUNDS FOR USE IN STABILIZING P53 MUTANTS” (priority 2008, published 2011)

Target: T1, T-p53C-Y220C (Homo sapiens, UniProt P04637, M133L/N239Y/N268D/V203A/Y220C)
T1 construct: For all other experiments, the DNA coding for residues 94-312 of T-p53C was inserted into a modified pET24a(+) vector; 6xHis tag + B. stearothermophilus dihydrolipoyl acetyltransferase lipoyl domain (aa 1-85) + TEV site (N, cleaved yes); made in house; host or cells: Escherichia coli BL21 (DE3) or C41 (DE3)
Assay: Thermal denaturation using fluorescence (Sypro Orange)
Assay type: binding
Conditions: further compounds; 10 μM protein
Experimental: This was by an adaption of the classical procedure (e.g. ref A6). Thermal unfolding was monitored by the binding of the dye Sypro Orange (5×) using a Rotor-gene 6000 (Corbett Life Science) at 270 K/h in 25 mM NaPi, 150 mM NaCl and 5 mM DTT, pH 7.2 with a protein concentration of 10 μM.
(§1) Where listed, S.E. is the calculated standard error.
as §1

| Structure (SMILES) | ΔTm (° C.) |
| --- | --- |
| CCn1c(-c2cn(CC)c3ccccc23)n[nH]c1=S [PK236] | 0.3 °C |
| CCCN1CCN(CC(=O)Nc2ccc3c(c2)c2ccccc2n3CC)CC1 [PK126] | 0.23 °C |
| CCn1c2ccccc2c2cc(CNCCSc3nnnn3C)ccc21 [PK390] | 0.41 °C |
| [2H]C(=O)Nc1ccc(N2CCN(C)CC2)cc1C [PK295] | 0.244 °C |
| CNCc1ccc2c(c1)c1ccccc1n2CCS [PK234] | 0.28 °C |
| [2H]NNS(=O)(=O)c1cccc(C(F)(F)F)c1 [PK255] | 0.26 °C |
| CCn1c2ccccc2c2cc(CNCCN3CCOCC3)ccc21 [PK208] | 0.35 °C |
| CCOC(=O)c1c(C)n(CC)c2ccc(OC(=O)Nc3ccc(Cl)cc3)cc12 [PK246] | 0.31 °C |
| CCn1c2ccccc2c2cc(NC(=O)COC(=O)CNC(=O)c3ccc([N+](=O)[O-])cc3)ccc21 [PK108] | 0.335 °C |
| [2H]C(=O)OC(C)C(=O)NC(N)=O (centres unmarked) [PK263] | 0.06 °C |
| CCn1c2ccccc2c2cc(CN3CCN(Cc4ccccc4C(F)(F)F)CC3)ccc21 [PK197] | 0.08 °C |
| CCn1c2ccccc2c2cc(CNCC(C)O)ccc21 (centres unmarked) [PK391] | 0.66 °C |
| CCn1c2ccccc2c2cc(NC(=O)CO)ccc21 [PK132] | 0.2 °C |
| CCn1cc(C(=O)OCC(=O)c2ccc[nH]2)c2ccccc21 [PK279] | 0.24 °C |
| [2H]C(=O)N(C)Cc1nc2ccccc2c(=O)[nH]1 [PK315] | 0.29 °C |
| [2H]C(=O)N1CCc2[nH]c3ccccc3c2C1 [PK293] | 0.3741 °C |
| CCCn1cc(CCN)c2cc(OCC)ccc21 [PK408] | 0.26 °C |
| CCn1c2ccccc2c2cc(CN(C)c3ccc4nnnn4n3)ccc21 [PK157] | 0.12 °C |
| CCn1cc(C(=O)OCC(=O)NC(=O)NCc2ccco2)c2ccccc21 [PK273] | 0.28 °C |
| CCn1c2ccccc2c2cc(CNCC(F)(F)F)ccc21 [PK230] | 0.4 °C |
| CNCc1ccc2c(c1)c1ccccc1n2CCBr [PK232] | 0.39 °C |
| CCn1cc(C(=O)NCc2cccc(NC(=O)C3CC3)c2)c2ccccc21 [PK312] | 0.15 °C |

| Structure (SMILES) | ΔTm (° C.) |
| --- | --- |
| CCn1c2ccccc2c2cc(NC(=O)COc3ccc([N+](=O)[O-])nc3)ccc21 [PK163] | 0.27 °C |
| COc1ccc2c(c1)c(C(=O)NCCc1ccccn1)c(C)n2C1CC1 [PK276] | 0.29 °C |
| CCn1c2ccccc2c2cc(NC(=O)COC(=O)Cn3nc(C)c([N+](=O)[O-])c3C)ccc21 [PK118] | 0.28 °C |
| CCn1cc(C(=O)Nc2ccn(C)n2)c2ccccc21 [PK318] | 0.12 °C |
| CCn1c2ccccc2c2cc(NC(=O)CCCC(=O)O)ccc21 [PK135] | 0.083 °C |
| [2H]C(=O)N1CCN(Cc2ccccc2)CC1 [PK285] | 0.2 °C |
| CCn1cc(C=C(C#N)C#N)c2ccccc21 [PK238] | 0.2 °C |
| CCn1cc(C(=O)OCc2nc(N)nc(Nc3ccccc3)n2)c2ccccc21 [PK301] | 0.3 °C |
| CCn1c2ccccc2c2cc(NC(=O)CN3C(=O)NC4(CCCC4)C3=O)ccc21 [PK116] | 0.365 °C |
| CCn1c2ccccc2c2cc(CN(C)CC(O)c3ccccc3)ccc21 (centres unmarked) [PK186] | 0.18 °C |
| [2H]C(=O)OCC(=O)NC(=O)NCC [PK266] | 0.18 °C |
| CCn1c2ccccc2c2cc(NC(=O)CN3CCC(C(N)=O)CC3)ccc21 [PK151] | 0.14 °C |
| CCn1cc(C(=O)Nc2ccc(OC)cc2)c2ccccc21 [PK237] | 0.2 °C |
| CCn1c2ccccc2c2cc(NC(=O)COc3ccc(S(=O)(=O)N4CCOCC4)cc3)ccc21 [PK094] | 0.195 °C |
| CCn1c(C)c(C(=O)NCCN(C)C)c2cc(OC)ccc21 [PK402] | 0.19 °C |
| CCn1c2ccccc2c2cc(CN3CCCN(C)CC3)ccc21 [PK175] | 0.395 °C |
| CCOC(=O)c1c(C)n(CC)c2cc(Br)c(OC)cc12 [PK248] | 0.21 °C |
| CCn1c2ccccc2c2cc(CN3CCOCC3)ccc21 [PK190] | 0.15 °C |
| [2H]C(=O)OC(C)c1nc(N)nc(N(C)C)n1 (centres unmarked) [PK286] | 0.24 °C |
| [2H]C(=O)OCC(=O)NC(=O)NC [PK268] | 0.31 °C |
| CCOc1ccc2c(c1)c(CCN)cn2CC [PK407] | 0.29 °C |
| CCn1c2ccccc2c2cc(CN3CCN(C)CC3)ccc21 [PK177] | 0.2 °C |

| Structure (SMILES) | ΔTm (° C.) |
| --- | --- |
| CCn1cc(C(=O)OCC2CNC(=O)O2)c2ccccc21 (centres unmarked) [PK311] | 0.15 °C |
| CCn1cc(C=C(C#N)C(N)=O)c2ccccc21 [PK240] | 0.2 °C |
| CCn1cc(C(=O)Nc2c(C)nn(C)c2C)c2ccccc21 [PK313] | 0.28 °C |
| [2H]C(=O)OCC(=O)NC(=O)NC1CCCC1 [PK269] | 0.15 °C |
| CCOC(=O)c1c(C)n(C2CC2)c2ccc(OC(=O)C3COc4ccccc4O3)cc12 (centres unmarked) [PK305] | 0.26 °C |
| COc1ccc2c(c1)c(C(=O)NC(C)C(C)C)c(C)n2C1CC1 (centres unmarked) [PK277] | 0.34 °C |
| CCn1cc(C(=O)OC(C)C(=O)Nc2cc(C)on2)c2ccccc21 (centres unmarked) [PK270] | 0.11 °C |
| CCn1c2ccccc2c2cc(CN3CCc4ccccc4C3)ccc21 [PK176] | 0.455 °C |
| CCn1cc(C(=O)NC(c2cccc(F)c2)c2nccn2C)c2ccccc21 (centres unmarked) [PK317] | 0.09 °C |
| CCn1cc(C2CC3CN(C)C(=O)C34CCCN24)c2ccccc21 (centres unmarked) [PK222] | 0.14 °C |
| CCn1c2ccccc2c2cc(NC(=O)CN3C(=O)NC4(CCCCC4)C3=O)ccc21 [PK165] | 0.24 °C |
| CCn1c2ccccc2c2cc(CN3CCN(Cc4cc(OC)ccc4O)CC3)ccc21 [PK202] | 0.17 °C |
| [2H]C(=O)Nc1ccc(OC)c(S(N)(=O)=O)c1 [PK292] | 0.154 °C |
| COc1ccc2c(c1)c(C(=O)OC(C(N)=O)c1ccccc1)c(C)n2C1CC1 (centres unmarked) [PK294] | 0.064 °C |
| CCn1cc(C(=O)NCc2cccc(S(=O)(=O)N3CCOCC3)c2)c2ccccc21 [PK306] | 0.26 °C |
| CCn1c2ccccc2c2cc(CN3CCN(S(=O)(=O)c4ccccc4)CC3)ccc21 [PK215] | 0.17 °C |
| [2H]C(=O)N1CCN(c2ncccn2)CC1 [PK283] | 0.19 °C |
| Cn1cc(NN)c2ccccc21 [PK253] | 0.093 °C |
| CCOC(=O)/C=C/C(=O)OCC(=O)Nc1ccc2c(c1)c1ccccc1n2CC [PK113] | 0.36 °C |
| [2H]C(=O)OCC(=O)Nc1cc(C)on1 [PK264] | 0.19 °C |
| CCn1c2ccccc2c2cc(CNCCNCCO)ccc21 [PK392] | 0.70 °C |
| CCn1c2ccccc2c2cc(NC(=O)C3=COCCO3)ccc21 [PK153] | 0.16 °C |

| Structure (SMILES) | ΔTm (° C.) |
| --- | --- |
| [2H]NNS(=O)(=O)c1ccc(C(=O)OC)cc1 [PK281] | 0.43 °C |
| Cc1c(C=O)c2ccccc2n1C [PK243] | 0.2 °C |
| CCn1cc(C(=O)O)c2ccccc21 [PK242] | 0.16 °C |
| CCn1cc(C(=O)NCc2cccc(NC(=O)C3CC3)c2)c2ccccc21 [PK307] | 0.26 °C |
| COc1ccc2c(c1)c(C(=O)OCC(=O)Nc1cc(F)ccc1F)c(C)n2C1CC1 [PK310] | 0.36 °C |
| CCn1c2ccccc2c2cc(NC(=O)CN(C)CC(=O)Nc3ccc(N4CCOCC4)cc3)ccc21 [PK122] | 0.28 °C |
| [2H]C(=O)OCC(=O)NCC(F)(F)F [PK258] | 0.1 °C |
| CCn1cc(C(=O)OC)c2ccccc21 [PK339] | 0.4 °C |
| CCn1cc(C(=O)NCc2cccc(NC(=O)c3ccco3)c2)c2ccccc21 [PK314] | 0.16 °C |
| [2H]C(=O)OC(CC)C(=O)Nc1cc(C)on1 (centres unmarked) [PK284] | 0.23 °C |
| CCn1c2ccccc2c2cc(CN3CCCC(C4NC(=O)NC4C)C3)ccc21 (centres unmarked) [PK218] | 0.31 °C |
| CCn1c2ccccc2c2cc(NC(=O)C(C)OC(=O)c3n[nH]c(=O)c4ccccc34)ccc21 (centres unmarked) [PK133] | 0.145 °C |
| CCOC(=O)c1c(C)n(C)c2ccc(O)cc12 [PK241] | 0.2 °C |
| CCn1cc(C(=O)OCCOc2ccccc2C(C)=O)c2ccccc21 [PK309] | 0.29 °C |
| CCn1cc(C(=O)Nc2cccc(S(=O)(=O)N(C)C)c2)c2ccccc21 [PK272] | 0.44 °C |
| CCn1cc(C(=O)CN2CCc3ccccc3C2)c2ccccc21 [PK212] | 0.387 °C |
| [2H]NNS(=O)(=O)c1ccc(OC(F)(F)F)cc1 [PK254] | 0.43 °C |
| CCOC(=O)c1c(C)n(C)c2ccc(OCCN(C)C)cc12 [PK250] | 0.14 °C |
| [2H]C(=O)Nc1cc(S(=O)(=O)N2CCN(C)CC2)ccc1OC [PK280] | 0.42 °C |
| CCn1c2ccccc2c2cc(NC(=O)CN3CCOCC3)ccc21 [PK128] | 0.24 °C |
| CNCc1ccc2c(c1)c1ccccc1n2CCCl [PK229] | 0.7 °C |
| [2H]C(=O)OCC(=O)NC(=O)NCC=C [PK256] | 0.1 °C |

Same assay, conditions: further studies on compounds described above; 10 μM protein

| Structure (SMILES) | ΔTm (° C.) |
| --- | --- |
| CCn1c2ccccc2c2cc(NC(=O)COc3ccc([N+](=O)[O-])nc3)ccc21 [PK163] | 0.24 °C |
